In article PMC7187334 (Clinical Pharmacology in Drug Development, 2019):

Tests used:
P‐glycoprotein = P‐glycoprotein (Homo sapiens, UniProt P08183); assay: P-glycoprotein inhibition in vitro; type: in vitro ADME
[1] = molecular target: T1, breast cancer resistance protein (BCRP) (Homo sapiens, UniProt Q9UNQ0); assay: BCRP transporter inhibition in vitro; type: in vitro ADME; conditions: unpublished data
T1 sequence (Q9UNQ0 1-655): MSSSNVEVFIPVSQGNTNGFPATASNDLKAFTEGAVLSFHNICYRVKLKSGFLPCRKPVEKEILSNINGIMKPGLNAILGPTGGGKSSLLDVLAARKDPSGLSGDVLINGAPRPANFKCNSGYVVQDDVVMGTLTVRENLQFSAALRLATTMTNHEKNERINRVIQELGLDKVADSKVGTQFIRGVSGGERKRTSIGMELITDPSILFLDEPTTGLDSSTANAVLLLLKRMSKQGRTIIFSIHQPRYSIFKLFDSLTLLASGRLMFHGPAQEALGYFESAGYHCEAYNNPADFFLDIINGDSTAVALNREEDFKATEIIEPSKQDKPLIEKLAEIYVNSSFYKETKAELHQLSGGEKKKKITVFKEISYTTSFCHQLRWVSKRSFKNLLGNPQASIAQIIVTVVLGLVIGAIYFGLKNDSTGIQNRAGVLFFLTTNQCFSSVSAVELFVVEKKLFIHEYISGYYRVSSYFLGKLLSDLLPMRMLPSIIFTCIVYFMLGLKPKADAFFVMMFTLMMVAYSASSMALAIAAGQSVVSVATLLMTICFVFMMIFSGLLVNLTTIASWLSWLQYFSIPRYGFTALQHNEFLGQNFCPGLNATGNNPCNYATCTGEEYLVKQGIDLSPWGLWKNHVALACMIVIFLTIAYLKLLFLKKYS

healthy volunteers = assay: Phase 1 crossover study: safety and tolerability (adverse events); type: in vivo, human
Procedure: Each participant received 5 single‐dose oral study treatments (A‐E), with a minimum washout period of 7 days between each treatment period.
The safety set included all participants who received treatment in the study and for whom any postdose safety data were available. Safety was assessed throughout the study by monitoring adverse events, vital signs (systolic and diastolic blood pressure, pulse rate, and body temperature), and electrocardiographic parameters and by conducting physical examinations and laboratory assessments (hematology, blood chemistry, and urinalysis).

[2] = system: leukotriene B4 production in human leukocytes; conditions: in vitro; cited from earlier work
[3] = system: leukotriene B4 production; conditions: healthy volunteers, first-in-human study; 95% CI 4.8-5.8 nM; read-out: IC50, inhibition of leukotriene B4 production, whole-blood ex vivo stimulation assay; cited from earlier work
[4] = system: leukotriene E4 levels in urine; conditions: healthy volunteers, first-in-human study; 95% CI 0.7-1.0 nM; read-out: IC50, reduction of endogenous leukotriene E4 levels in urine; cited from earlier work
[5] = healthy volunteers, cited from earlier work
CYP2C8 = conditions: in vitro; read-out: IC50, CYP2C8 inhibition; cited from earlier work
CYP2C19 = conditions: in vitro; read-out: IC50, CYP2C19 inhibition; cited from earlier work
CYP2D6 = conditions: in vitro; read-out: IC50, CYP2D6 inhibition; cited from earlier work
[6] = molecular target: organic anion‐transporting polypeptide 1B1 (OATP1B1) (Homo sapiens, UniProt Q9Y6L6); assay: OATP1B1 transporter inhibition in vitro; conditions: read-out: IC50, OATP1B1 inhibition, unpublished data
Chain of organic anion‐transporting polypeptide 1B1 (OATP1B1) (Q9Y6L6 whole entry): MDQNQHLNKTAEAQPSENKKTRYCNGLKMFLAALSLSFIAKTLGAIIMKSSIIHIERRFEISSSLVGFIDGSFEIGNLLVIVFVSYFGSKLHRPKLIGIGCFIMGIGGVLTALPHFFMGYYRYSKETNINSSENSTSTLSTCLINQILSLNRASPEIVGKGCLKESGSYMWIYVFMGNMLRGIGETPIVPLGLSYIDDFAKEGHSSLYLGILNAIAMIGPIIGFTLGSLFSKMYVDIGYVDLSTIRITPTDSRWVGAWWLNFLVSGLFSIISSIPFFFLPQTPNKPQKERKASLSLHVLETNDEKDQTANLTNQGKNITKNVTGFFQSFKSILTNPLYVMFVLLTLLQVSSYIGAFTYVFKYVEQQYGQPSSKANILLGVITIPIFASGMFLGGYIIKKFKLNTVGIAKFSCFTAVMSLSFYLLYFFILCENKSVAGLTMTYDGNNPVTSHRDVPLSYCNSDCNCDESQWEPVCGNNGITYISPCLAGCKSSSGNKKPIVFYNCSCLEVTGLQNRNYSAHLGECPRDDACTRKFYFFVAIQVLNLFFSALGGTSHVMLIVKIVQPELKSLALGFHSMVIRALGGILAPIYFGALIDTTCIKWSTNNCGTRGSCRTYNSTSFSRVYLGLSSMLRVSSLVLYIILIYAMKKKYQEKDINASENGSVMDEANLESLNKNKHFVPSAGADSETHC

Chain of P‐glycoprotein (P08183 whole entry): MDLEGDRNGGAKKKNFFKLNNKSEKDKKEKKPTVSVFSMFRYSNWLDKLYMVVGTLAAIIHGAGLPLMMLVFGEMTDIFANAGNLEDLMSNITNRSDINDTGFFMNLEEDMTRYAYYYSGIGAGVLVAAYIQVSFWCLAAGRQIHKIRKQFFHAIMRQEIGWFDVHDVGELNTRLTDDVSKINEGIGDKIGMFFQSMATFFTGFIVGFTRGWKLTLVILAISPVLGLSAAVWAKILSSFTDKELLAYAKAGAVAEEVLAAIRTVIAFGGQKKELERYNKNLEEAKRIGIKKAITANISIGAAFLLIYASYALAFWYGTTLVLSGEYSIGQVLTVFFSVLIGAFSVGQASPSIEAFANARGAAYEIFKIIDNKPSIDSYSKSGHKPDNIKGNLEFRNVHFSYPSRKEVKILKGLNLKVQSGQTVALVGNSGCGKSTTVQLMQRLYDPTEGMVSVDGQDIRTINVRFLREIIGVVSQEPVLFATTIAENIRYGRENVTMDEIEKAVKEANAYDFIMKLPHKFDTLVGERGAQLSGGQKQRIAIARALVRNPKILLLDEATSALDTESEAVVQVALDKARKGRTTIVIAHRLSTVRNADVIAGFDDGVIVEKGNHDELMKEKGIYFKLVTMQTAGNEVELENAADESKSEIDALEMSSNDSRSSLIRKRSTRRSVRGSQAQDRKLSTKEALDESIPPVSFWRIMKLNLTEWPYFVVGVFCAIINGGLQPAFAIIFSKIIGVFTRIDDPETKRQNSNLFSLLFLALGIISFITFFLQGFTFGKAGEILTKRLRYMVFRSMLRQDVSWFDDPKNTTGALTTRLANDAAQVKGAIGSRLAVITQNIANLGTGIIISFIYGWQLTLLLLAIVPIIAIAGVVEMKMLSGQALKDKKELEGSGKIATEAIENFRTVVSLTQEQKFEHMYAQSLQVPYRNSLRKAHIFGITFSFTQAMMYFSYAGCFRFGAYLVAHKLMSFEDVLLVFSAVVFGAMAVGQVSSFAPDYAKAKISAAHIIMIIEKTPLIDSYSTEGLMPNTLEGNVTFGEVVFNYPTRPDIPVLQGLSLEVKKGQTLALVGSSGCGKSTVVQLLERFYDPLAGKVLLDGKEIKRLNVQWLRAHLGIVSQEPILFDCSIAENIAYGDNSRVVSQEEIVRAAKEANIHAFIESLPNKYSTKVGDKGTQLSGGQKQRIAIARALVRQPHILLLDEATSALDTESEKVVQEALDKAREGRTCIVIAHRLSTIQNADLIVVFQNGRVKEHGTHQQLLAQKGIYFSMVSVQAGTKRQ

Cc1cc(-c2ccc(C(=O)[C@@H]3CCCC[C@H]3C(=O)Nc3cnn4c3C(=O)NCC4)cc2)n[nH]1 [AZD5718]
IC50 (P‐glycoprotein): > 100000 nM | IC50 [1]: 20000 nM | Deaths, serious adverse events, adverse events leading to discontinuation (healthy volunteers; all 5 treatment periods, 12 healthy men): No deaths, serious adverse events, or adverse events leading to discontinuation occurred | Participants with any AE (healthy volunteers; human, in vivo): 6 (50.0) n (%) | Participants with dry skin (healthy volunteers; human, in vivo): 1 (8.3) n (%) | Participants with headache (healthy volunteers; human, in vivo): 2 (16.7) n (%) | Participants with hot flush (healthy volunteers; human, in vivo): 1 (8.3) n (%) | Participants with influenza-like illness (healthy volunteers; human, in vivo): 1 (8.3) n (%) | Participants with musculoskeletal pain (healthy volunteers; human, in vivo): 1 (8.3) n (%) | Participants with nasal congestion (healthy volunteers; human, in vivo): 1 (8.3) n (%) | Participants with nasopharyngitis (healthy volunteers; human, in vivo): 1 (8.3) n (%) | Participants with nausea (healthy volunteers; human, in vivo): 1 (8.3) n (%) | Participants with oropharyngeal pain (healthy volunteers; human, in vivo): 1 (8.3) n (%) | Participants with poor-quality sleep (healthy volunteers; human, in vivo): 1 (8.3) n (%) | IC50 [2]: 39 nM | IC50 [3]: 5.3 nM | IC50 [4]: 0.8 nM | time to steady-state levels ([5]; oral suspension, multiple doses): about 3 days | tolerability ([5]; single oral doses 25-1200 mg and multiple doses 60-600 mg): well tolerated, with no identified safety concerns | IC50 (CYP2C8): > 20000 nM | IC50 (CYP2C19): > 20000 nM | IC50 (CYP2D6): > 20000 nM | IC50 [6]: 2300 nM
